{"source": "patent US8729073B2", "about": "“5-methyl-1-(naphthalen-2-yl)-1H-pyrazole derivatives and their use in potentiating the effect of opioid analgesics” (Laboratorios Del Dr. Esteve, S.A., priority 2010, dated 2014)", "key": {"[1]": {"test_system": "capsaicin-induced neuropathic pain", "assay": "Effect on capsaicin in development of mechanical allodynia (von Frey filaments)", "assay_type": "in vivo", "details": "mice, test compound given before 1 μg capsaicin (1% DMSO) injected into paw, FIG. 2", "description": "Effect on Capsaicin in Development of Mechanical Allodynia\nThis model uses the von-Frey Filaments and is a model to test the effects or symptoms of neuropathic pain, allodynia etc.\nInterest of the model: • The injection of 1 μg of capsaicin to experimental animals produces acute pain followed by hyperalgesia/allodynia • The mechanisms involved in capsaicin-induced acute pain and hyperalgesia are relatively well known (mainly activation of peripheral nociceptors and sensitization of spinal cord neurons, respectively)\nAfter habituation mice were according to FIG. 1 first treated with the test-compound (or solvent in controls). Then 1 μg capsaicin (1% DMSO) is injected into their paw resulting in developing pain in the effected paw. The effected paw is then treated with a mechanical stimulus and the latency time before the paw is withdrawn is measured."}, "morphine analgesia": {"test_system": "morphine analgesia", "assay": "Tail-flick test in mice, modulation of morphine analgesia", "assay_type": "in vivo", "details": "male CD1 mice; Example n^o 1 5-20 mg/kg i.p. coadministered with fixed dose of morphine 2 mg/kg s.c.; 30 min post-administration; FIG. 3"}}, "note": "“Also recorded” adds a separate entry of the source.", "data": [{"compound": "Cc1cc(OCCN2CCOCC2=O)nn1-c1ccc2ccccc2c1", "note": "[Example n^o 1, 4-(2-(5-methyl-1-(naphthalen-2-yl)-1H-pyrazol-3-yloxy)ethyl)morpholin-3-one]", "values": [{"measurement": "analgesia in capsaicin-induced neuropathic pain (latency time before the paw is withdrawn, mechanical stimulus)", "setting": "[1]", "result": "dose dependency of the treatment with the compound of example 1 showing analgesia in capsaicin-induced neuropathic pain"}, {"measurement": "potentiation of morphine analgesia (% Analgesia, tail-flick latency)", "setting": "morphine analgesia", "result": "enhances the analgesic effect of a fixed dose of morphine; also recorded: dose-dependently increased the analgesic efficacy of morphine"}]}]}
